Test results taken from article PMC4672112, “Purification, Characterization of L-Methioninase from Candida tropicalis, and Its Application as an Anticancer” (Biotechnology Research International, 2015).

System: T1, L-methioninase
T1 construct: native, intracellular, purified from C. tropicalis cells (heat treatment, DEAE-cellulose, Sephadex); 46 kDa by SDS-PAGE; PLP enzyme
Experiment: DTNB methanethiol assay, […] nm; Lineweaver-Burk plot
Type: biochemical, Candida tropicalis
Details: optimum assay conditions (pH 6.5, 45 C, 10 min), PLP; substrate range printed as 1 to 40 uM, which conflicts with the unit of Km; read-out: apparent Km

In the case of `CSCC[C@H](N)C(=O)O` [L-methionine], the Km is reported as 500 µM.
